Measurements as given in PubChem BioAssay (NCI).
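All cell lines were grown in 96-well plates and treated with compound for 48 hours. GI50 = concentration required for 50% inhibition of growth. The concentration for full growth arrest is given as TGI.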

Columns and labels:
Experiment in all cases: growth of human tumour cells (NCI), 48 h
[1] = system: HCT-116 colon
[2] = system: HL-60(TB) leukemia
[3] = system: SK-MEL-28 melanoma
[4] = system: NCI-H226 lung
[5] = system: DU-145 prostate
[6] = system: U251 CNS
[7] = system: SF-295 CNS
[8] = system: SK-MEL-5 melanoma
[9] = system: OVCAR-5 ovarian
[10] = system: A549 NSCLC
[11] = system: RXF 393 renal
[12] = system: HS 578T breast
[13] = system: SF-539 CNS
[14] = system: BT-549 breast
[15] = system: ACHN renal
[16] = system: UACC-62 melanoma
[17] = system: CCRF-CEM leukemia
[18] = system: MALME-3M melanoma
[19] = system: EKVX NSCLC
[20] = system: SNB-75 CNS
[21] = system: MDA-MB-468 breast
[22] = system: OVCAR-3 ovarian
[23] = system: SK-MEL-2 melanoma
[24] = system: IGROV1 ovarian
[25] = system: M14 melanoma
[26] = system: COLO 205 colon
[27] = system: SNB-19 CNS
[28] = system: MOLT-4 leukemia
[29] = system: SF-268 CNS
[30] = system: SK-OV-3 ovarian
[31] = system: HOP-92 NSCLC
[32] = system: TK-10 renal
[33] = system: UACC-257 melanoma
[34] = system: K-562 leukemia
[35] = system: RPMI-8226 leukemia
[36] = system: HCC-2998 colon
[37] = system: MDA-MB-435
[38] = system: SW-620 colon
[39] = system: NCI-H460 lung
[40] = system: KM12 colon
[41] = system: MCF7 breast
[42] = system: T-47D breast
[43] = system: SN12C renal
[44] = system: NCI/ADR-RES ovarian
[45] = system: CAKI-1 renal
[46] = system: NCI-H522 lung
[47] = system: SR leukemia
[48] = system: 786-0 renal
[49] = system: LOX IMVI melanoma
[50] = system: PC-3 prostate
[51] = system: HCT-15 colon
[52] = system: NCI-H23 lung
[53] = system: UO-31 renal
[54] = system: A498 renal
[55] = system: HT29 colon
[56] = system: MDA-MB-231 breast
[57] = system: HOP-62 NSCLC
[58] = system: OVCAR-4 ovarian
[59] = system: OVCAR-8 ovarian

O=C(COc1ccc(/C=C2/C(=O)Nc3ccc(Cl)cc32)cc1)Nc1ccc(Br)cc1
GI50 [1]: 1.55 µM
TGI [1]: 3.09 µM
GI50 [2]: 3.51 µM
TGI [2]: 14.9 µM
GI50 [3]: 1.98 µM
TGI [3]: 5.02 µM
GI50 [4]: 1.55 µM
TGI [4]: 3.81 µM
GI50 [5]: 2.38 µM
TGI [5]: 6.52 µM
GI50 [6]: 1.75 µM
TGI [6]: 3.29 µM
GI50 [7]: 1.74 µM
TGI [7]: 3.8 µM
GI50 [8]: 2.14 µM
TGI [8]: 5.47 µM
GI50 [9]: 2.29 µM
TGI [9]: 7.61 µM
GI50 [10]: 1.52 µM
TGI [10]: 3.28 µM
GI50 [11]: 1.59 µM
TGI [11]: 3.24 µM
GI50 [12]: 2.02 µM
TGI [12]: 6.68 µM
GI50 [13]: 1.59 µM
TGI [13]: 3.04 µM
GI50 [14]: 1.43 µM
TGI [14]: 4.75 µM
GI50 [15]: 1.2 µM
TGI [15]: 2.47 µM
GI50 [16]: 1.35 µM
TGI [16]: 5.72 µM
GI50 [17]: 2.11 µM
TGI [17]: 5.54 µM
GI50 [18]: 1.5 µM
TGI [18]: 3.68 µM
GI50 [19]: 1.92 µM
TGI [19]: 5.99 µM
GI50 [20]: 5.09 µM
TGI [20]: 20.3 µM
GI50 [21]: 10.3 µM
TGI [21]: 22 µM
GI50 [22]: 1.7 µM
TGI [22]: 3.18 µM
GI50 [23]: 2.58 µM
TGI [23]: 10.8 µM
GI50 [24]: 2.24 µM
TGI [24]: 8.14 µM
GI50 [25]: 1.67 µM
TGI [25]: 5.81 µM
GI50 [26]: 4.61 µM
TGI [26]: 17.1 µM
GI50 [27]: 2.72 µM
TGI [27]: 8.08 µM
GI50 [28]: 2.61 µM
TGI [28]: 8.48 µM
GI50 [29]: 2.42 µM
TGI [29]: 10.8 µM
GI50 [30]: 1.49 µM
TGI [30]: 4.12 µM
GI50 [31]: 1.61 µM
TGI [31]: 3.83 µM
GI50 [32]: 2.74 µM
TGI [32]: 5.51 µM
GI50 [33]: 4.3 µM
TGI [33]: 16.5 µM
GI50 [34]: 2.11 µM
TGI [34]: 12.7 µM
GI50 [35]: 4.04 µM
TGI [35]: 14.8 µM
GI50 [36]: 4.46 µM
TGI [36]: 17.6 µM
GI50 [37]: 3.45 µM
TGI [37]: 13.5 µM
GI50 [38]: 1.89 µM
TGI [38]: 3.82 µM
GI50 [39]: 1.91 µM
TGI [39]: 3.79 µM
GI50 [40]: 2.47 µM
TGI [40]: 11.6 µM
GI50 [41]: 2.03 µM
TGI [41]: 7.86 µM
GI50 [42]: 1.93 µM
TGI [42]: 7.56 µM
GI50 [43]: 1.75 µM
TGI [43]: 4.39 µM
GI50 [44]: 1.77 µM
TGI [44]: 4.04 µM
GI50 [45]: 1.47 µM
TGI [45]: 3.58 µM
GI50 [46]: 1.71 µM
TGI [46]: 4.64 µM
GI50 [47]: 2.93 µM
TGI [47]: 12.1 µM
GI50 [48]: 1.78 µM
TGI [48]: 3.21 µM
GI50 [49]: 1.36 µM
TGI [49]: 2.64 µM
GI50 [50]: 1.79 µM
TGI [50]: 6.25 µM
GI50 [51]: 1.4 µM
TGI [51]: 10.1 µM
GI50 [52]: 1.66 µM
TGI [52]: 3.46 µM
GI50 [53]: 0.221 µM
TGI [53]: 2.27 µM
GI50 [54]: 7.37 µM
TGI [54]: 19.6 µM
GI50 [55]: 2.87 µM
TGI [55]: 9.07 µM
GI50 [56]: 1.36 µM
TGI [56]: 2.88 µM
GI50 [57]: 1.62 µM
TGI [57]: 3.79 µM
GI50 [58]: 1.85 µM
TGI [58]: 3.93 µM
GI50 [59]: 1.87 µM
TGI [59]: 3.93 µM
